Values of other authors as cited in patent US11197823B2, “Topiramate oral liquid suspension and use thereof” (OWP Pharmaceuticals, Inc., priority 2019, dated 2021).

- solubility in organic solvents and alkaline solutions (acetone, dimethyl sulfoxide, ethanol, and alkaline solutions containing sodium hydroxide or sodium phosphate): freely soluble
- solubility in water (water, room temperature): approximately 9.8 mg/mL
Compound: CC1(C)O[C@@H]2[C@@H](CO[C@@]3(COS(N)(=O)=O)OC(C)(C)O[C@@H]23)O1 [Topiramate, 2,3:4,5-Di-O-isopropylidene-β-D-fructopyranose sulfamate]
